Legend:
Papain = Papain (Carica papaya, UniProt P00784); assay type: biochemical
Chymotrypsin = Chymotrypsin (Bos taurus, UniProt P00766); assay: biochemical

Chain of Papain (P00784 134-345 limits assumed): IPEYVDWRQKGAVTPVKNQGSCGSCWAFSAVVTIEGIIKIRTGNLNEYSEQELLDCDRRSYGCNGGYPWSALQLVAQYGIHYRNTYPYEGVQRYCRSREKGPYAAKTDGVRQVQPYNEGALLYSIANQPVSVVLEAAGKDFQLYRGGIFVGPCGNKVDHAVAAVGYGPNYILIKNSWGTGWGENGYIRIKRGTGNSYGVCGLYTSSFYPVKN

SMILES: O=C1C(=O)N(Cc2cc3ccccc3s2)c2ccc(I)cc21 [Compound 4o]
- more potent inhibition for SARS CoV 3CL^pro than for papain (Papain): 90–105 times

SMILES: O=C1C(=O)N(Cc2cc3ccccc3s2)c2c(Br)cccc21 [Compound 4k]
- more potent inhibition for SARS CoV 3CL^pro than for papain (Papain): 90–105 times
- IC50 (Chymotrypsin): 10.4 µM
